Experimental data taken from patent publication US20260285866A1, “MODULATORS OF TRPML, THEIR COMPOSITIONS AND METHODS OF USE” (Caraway Therapeutics, Inc., priority 2024, published 2026).

Tests used:
Human TRPML1 = Human TRPML1 (Homo sapiens, UniProt Q9GZU1, L15A/L16A/L577A/L578A); test: Fluorescent TRPML1 assay (Fluo4-AM, HEK-293 Trex cells expressing hTRPML1); assay type: cell-based; settings: fluorescent calcium assay, doxycycline-induced hTRPML1
Method: Example 27. Fluorescent TRPML Assays
(§1) HEK-293 Trex cells were stably transfected with a construct consisting of the human coding sequence for TRPML1 cloned into the tet-inducible plasmid pCDNA5 T/O. Mutations were introduced into the TRPML1 sequence to facilitate expression on the cell surface (Silvia Vergarajauregui, Rosa Puertollano Traffic. 2006 March; 7(3): 337-353). Briefly, the cells are cultured in 150 mm round tissue culture dishes containing 20 mL of media. The day before the assay the cells are rinsed with DPBS-Ca-Mg and then treated briefly with Trypsin-EDTA. The Trypsin-EDTA is diluted with growth media, and cells are counted. 38×10^6 cells are re-plated into 150 mm round tissue culture dishes in media containing 0.5 μg/mL doxycycline to induce expression of hTRPML1.
(§2) The day of the experiment cells are lifted from the plates as above and collected by centrifugation. The cells are then suspended in dye loading buffer consisting of Ringer's solution supplemented with 0.1% Pluronic Acid and 1 micromolar Fluo4-AM dye. Cells are loaded for ~60 minutes in the dark with occasional mixing. The cells are collected by centrifugation, the loading media aspirated, and the cells resuspended in 25 mL Ringer's solution and incubated ~60 minutes in the dark. The cells are again collected by centrifugation, rinsed in Ringer's Solution and resuspended to 0.2×10^6 cells/mL in modified Ringer's solution containing 10 mM calcium.
(§3) Compounds are dissolved to a concentration of 10 millimolar with DMSO. Compound plates are created by dispensing compounds into 384 well black wall clear bottom plates (Greiner 781091). Positive and negative controls are included on each plate. Typically, different amounts of each compound are tested ranging from 100 nanoMoles (20 micromolar final concentration) decreasing in half-log steps to 31 picoMoles (6 nanomolar final concentration). Each concentration is typically tested in triplicate.
(§4) 50 microliters of dye-loaded cells are dispensed into each well of the compound assay plate created above. The fluorescence in each well is then determined with an excitation wavelength of 480 nm and an emission wavelength of 540 nm using either a Molecular Devices SpectraMax multimode plate reader or a Hamamatsu FDSS/uCell plate imager.
(§5) The resulting fluorescence for each well is exported as an ascii file and loaded into our LIMS for analysis. The percent activity of each compound at each concentration is determined by comparison to the positive and negative control wells included in each plate.
(§6) EC50 values were calculated using a non-linear regression of Prism. In the table, “A” indicates an EC50 of less than 100 nM, “B” indicates an EC50 range from 100 nM to 500 nM: “C” indicates an EC50 range from 500 nM to 2 μM; and “D” indicates an EC50 greater than 2 μM.

Human TRPML3 = target: T1, Human TRPML3 (Homo sapiens, UniProt Q8TDD5); test: Fluorescent TRPML3 assay (as for TRPML1); assay type: cell-based; settings: fluorescent calcium assay as for TRPML1, TRPML3 subtype
T1 construct: expressed in transfected cells
T1 sequence (Q8TDD5 1-553): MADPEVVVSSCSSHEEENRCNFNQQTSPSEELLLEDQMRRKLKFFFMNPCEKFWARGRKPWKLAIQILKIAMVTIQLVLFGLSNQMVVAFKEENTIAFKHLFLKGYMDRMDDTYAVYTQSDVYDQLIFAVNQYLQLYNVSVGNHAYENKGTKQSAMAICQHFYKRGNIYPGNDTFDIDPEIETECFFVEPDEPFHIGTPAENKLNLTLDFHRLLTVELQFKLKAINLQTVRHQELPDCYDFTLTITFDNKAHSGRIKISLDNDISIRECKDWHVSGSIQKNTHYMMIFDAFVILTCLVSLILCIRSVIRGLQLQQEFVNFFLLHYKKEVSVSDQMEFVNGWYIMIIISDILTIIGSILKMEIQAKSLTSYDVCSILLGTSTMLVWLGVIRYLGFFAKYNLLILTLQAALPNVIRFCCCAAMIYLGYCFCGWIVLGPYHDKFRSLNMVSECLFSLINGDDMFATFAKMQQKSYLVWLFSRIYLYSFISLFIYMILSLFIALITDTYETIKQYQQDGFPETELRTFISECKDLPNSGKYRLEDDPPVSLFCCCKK
Method: as §1, §2, §3, §4, §5
Assays for TRPML2 and TRPML3 were performed as above for TRPML1, by substituting the appropriate TRPML2 or TRPML3 subtype for the TRPML1.
as §6

Sequence of Human TRPML1 (Q9GZU1 whole entry L15A/L16A/L577A/L578A): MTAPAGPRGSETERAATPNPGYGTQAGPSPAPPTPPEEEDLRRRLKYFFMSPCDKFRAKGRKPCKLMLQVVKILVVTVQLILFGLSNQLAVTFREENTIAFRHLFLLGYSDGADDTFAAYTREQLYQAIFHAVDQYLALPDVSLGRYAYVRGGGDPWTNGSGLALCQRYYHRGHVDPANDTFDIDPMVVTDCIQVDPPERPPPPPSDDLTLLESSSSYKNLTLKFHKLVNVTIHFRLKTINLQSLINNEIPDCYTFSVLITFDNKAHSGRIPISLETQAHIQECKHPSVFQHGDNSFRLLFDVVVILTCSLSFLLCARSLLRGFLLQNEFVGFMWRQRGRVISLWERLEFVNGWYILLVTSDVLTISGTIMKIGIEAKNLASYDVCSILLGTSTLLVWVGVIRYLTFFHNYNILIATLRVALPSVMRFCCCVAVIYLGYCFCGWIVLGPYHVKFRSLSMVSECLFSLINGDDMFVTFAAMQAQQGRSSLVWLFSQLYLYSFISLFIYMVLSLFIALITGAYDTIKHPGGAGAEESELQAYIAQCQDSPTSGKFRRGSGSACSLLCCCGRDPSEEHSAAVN

| SMILES | EC50 (Human TRPML1) | EC50 (Human TRPML3) |
| --- | --- | --- |
| C[C@@H]1CN(c2ncnc3c2c(-c2nncs2)cn3-c2cc(C#N)ccn2)[C@@H](C)CN1C(=O)C(C)(C)O [Compound 155, 2-(4-((2S,5R)-4-(2-hydroxy-2-methylpropanoyl)-2,5-dimethylpiperazin-1-yl)-5-(1,3,4-thiadiazol-2-yl)-7H-pyrrolo[2,3-d]pyrimidin-7-yl)isonicotinonitrile] | > 2000 nM | – |
| C[C@@H]1CN(c2nccc3c2c(-c2ccncc2)cn3-c2cccc(C#N)c2)[C@@H](C)CN1C(=O)C(C)(C)O [Compound 145, 3-(4-((2S,5R)-4-(2-hydroxy-2-methylpropanoyl)-2,5-dimethylpiperazin-1-yl)-3-(pyridin-4-yl)-1H-pyrrolo[3,2-c]pyridin-1-yl)benzonitrile] | > 2000 nM | > 2000 nM |
| C[C@@H]1CN(c2ncnc3c2c(-c2ccccc2F)cn3-c2cc(C#N)ccn2)[C@@H](C)CN1C(=O)C1(O)CCN(C)CC1 [Compound 123, 2-(5-(2-fluorophenyl)-4-((2S,5R)-4-(4-hydroxy-1-methylpiperidine-4-carbonyl)-2,5-dimethylpiperazin-1-yl)-7H-pyrrolo[2,3-d]pyrimidin-7-yl)isonicotinonitrile] | > 2000 nM | > 2000 nM |
| C[C@@H]1CN(c2ncnc3c2c(-c2cccnc2)cn3-c2cc(C#N)ccn2)[C@@H](C)CN1C(=O)C(C)(C)O [Compound 115, 2-(4-((2S,5R)-4-(2-hydroxy-2-methylpropanoyl)-2,5-dimethylpiperazin-1-yl)-5-(pyridin-3-yl)-7H-pyrrolo[2,3-d]pyrimidin-7-yl)isonicotinonitrile] | 500 to 2000 nM | > 2000 nM |
| C[C@@H]1CN(c2nccc3c2c(-c2ccncc2)cn3-c2cc(C#N)ccn2)[C@@H](C)CN1C(=O)C(C)(C)O [Compound 140, 2-(4-((2S,5R)-4-(2-hydroxy-2-methylpropanoyl)-2,5-dimethylpiperazin-1-yl)-3-(pyridin-4-yl)-1H-pyrrolo[3,2-c]pyridin-1-yl)isonicotinonitrile] | 500 to 2000 nM | > 2000 nM |
| C[C@@H]1CN(c2ncnc3c2c(C2CC2)cn3-c2cc(C#N)ccn2)[C@@H](C)CN1C(=O)CC(O)(C(F)(F)F)C(F)(F)F [Compound 162, 2-(5-cyclopropyl-4-((2S,5R)-2,5-dimethyl-4-(4,4,4-trifluoro-3-hydroxy-3-(trifluoromethyl)butanoyl)piperazin-1-yl)-7H-pyrrolo[2,3-d]pyrimidin-7-yl)isonicotinonitrile] | – | 100 to 500 nM |
| C[C@@H]1CN(c2ncnc3c2c(-c2ccccc2F)cn3-c2cc(C#N)ccn2)[C@@H](C)CN1C(=O)C1(O)CC1 [Compound 157, 2-(5-(2-fluorophenyl)-4-((2S,5R)-4-(1-hydroxycyclopropane-1-carbonyl)-2,5-dimethylpiperazin-1-yl)-7H-pyrrolo[2,3-d]pyrimidin-7-yl)isonicotinonitrile] | > 2000 nM | > 2000 nM |
| C[C@@H]1CN(c2ncnc3c2c(-c2ccncc2)cn3-c2cc(F)cc(F)c2)[C@@H](C)CN1C(=O)C(C)(C)O [Compound 138, 1-((2R,5S)-4-(7-(3,5-difluorophenyl)-5-(pyridin-4-yl)-7H-pyrrolo[2,3-d]pyrimidin-4-yl)-2,5-dimethylpiperazin-1-yl)-2-hydroxy-2-methylpropan-1-one] | > 2000 nM | – |
| CC(C)(O)C(=O)N1CCN(c2ncnc3c2c(-c2ccccc2F)cn3-c2cc(C#N)ccn2)CC1 [Compound 124, 2-(5-(2-fluorophenyl)-4-(4-(2-hydroxy-2-methylpropanoyl)piperazin-1-yl)-7H-pyrrolo[2,3-d]pyrimidin-7-yl)isonicotinonitrile] | 500 to 2000 nM | – |
| C[C@@H]1CN(c2nccc3c2c(-c2ccncc2)cn3-c2cc(F)cc(F)c2)[C@@H](C)CN1C(=O)C(C)(C)O [Compound 143, 1-((2R,5S)-4-(1-(3,5-difluorophenyl)-3-(pyridin-4-yl)-1H-pyrrolo[3,2-c]pyridin-4-yl)-2,5-dimethylpiperazin-1-yl)-2-hydroxy-2-methylpropan-1-one] | > 2000 nM | – |

Results, then the compound that gave them:

| EC50 (Human TRPML1) | EC50 (Human TRPML3) | SMILES |
| --- | --- | --- |
| 100 to 500 nM | > 2000 nM | C[C@@H]1CN(c2ncnc3c2c(N2CCC2)cn3-c2cc(C#N)ccn2)[C@@H](C)CN1C(=O)C(C)(C)O [Compound 107, 2-(5-(azetidin-1-yl)-4-((2S,5R)-4-(2-hydroxy-2-methylpropanoyl)-2,5-dimethylpiperazin-1-yl)-7H-pyrrolo[2,3-d]pyrimidin-7-yl)isonicotinonitrile] |
| 500 to 2000 nM | > 2000 nM | C[C@@H]1CN(c2ncnc3c2c(-c2ccccc2)cn3-c2cc(C#N)ccn2)[C@@H](C)CN1C(=O)C1(O)CC1 [Compound 156, 2-(4-((2S,5R)-4-(1-hydroxycyclopropane-1-carbonyl)-2,5-dimethylpiperazin-1-yl)-5-phenyl-7H-pyrrolo[2,3-d]pyrimidin-7-yl)isonicotinonitrile] |
| 500 to 2000 nM | – | C[C@@H]1CN(c2ncnc3c2c(C2CC2)cn3-c2cc(C#N)ccn2)[C@@H](C)CN1C(=O)C(C)(C)O [Compound 105, 2-(5-cyclopropyl-4-((2S,5R)-4-(2-hydroxy-2-methylpropanoyl)-2,5-dimethylpiperazin-1-yl)-7H-pyrrolo[2,3-d]pyrimidin-7-yl)isonicotinonitrile] |
| 500 to 2000 nM | > 2000 nM | C[C@@H]1CN(c2nccc3c2c(-c2ccncc2)cn3-c2cccc(Cl)c2)[C@@H](C)CN1C(=O)C(C)(C)O [Compound 142, 1-((2R,5S)-4-(1-(3-chlorophenyl)-3-(pyridin-4-yl)-1H-pyrrolo[3,2-c]pyridin-4-yl)-2,5-dimethylpiperazin-1-yl)-2-hydroxy-2-methylpropan-1-one] |
| 100 to 500 nM | 500 to 2000 nM | C[C@@H]1CN(c2ncnc3c2c(-c2ccccc2)cn3-c2cc(C#N)ccn2)[C@@H](C2CC2)CN1C(=O)C(C)(C)O [Compound 119, 2-(4-((2S,5R)-2-cyclopropyl-4-(2-hydroxy-2-methylpropanoyl)-5-methylpiperazin-1-yl)-5-phenyl-7H-pyrrolo[2,3-d]pyrimidin-7-yl)isonicotinonitrile] |
| 100 to 500 nM | 500 to 2000 nM | CC[C@H]1CN(C(=O)C(C)(C)O)CCN1c1ncnc2c1c(-c1ccccc1)cn2-c1cc(C#N)ccn1 [Compound 111, (S)-2-(4-(2-ethyl-4-(2-hydroxy-2-methylpropanoyl)piperazin-1-yl)-5-phenyl-7H-pyrrolo[2,3-d]pyrimidin-7-yl)isonicotinonitrile] |
| 100 to 500 nM | 500 to 2000 nM | C[C@@H]1CN(c2ncnc3c2c(-c2ccccc2F)cn3-c2cc(OC(F)(F)F)ccn2)[C@@H](C)CN1C(=O)C(C)(C)O [Compound 103, 1-((2R,5S)-4-(5-(2-fluorophenyl)-7-(4-(trifluoromethoxy)pyridin-2-yl)-7H-pyrrolo[2,3-d]pyrimidin-4-yl)-2,5-dimethylpiperazin-1-yl)-2-hydroxy-2-methylpropan-1-one] |
| 100 to 500 nM | 500 to 2000 nM | CC(C)[C@H]1CN(C(=O)C(C)(C)O)[C@H](C)CN1c1ncnc2c1c(-c1ccccc1)cn2-c1cc(C#N)ccn1 [Compound 131, 2-(4-((2S,5R)-4-(2-hydroxy-2-methylpropanoyl)-2-isopropyl-5-methylpiperazin-1-yl)-5-phenyl-7H-pyrrolo[2,3-d]pyrimidin-7-yl)isonicotinonitrile] |
